Common to all, as to type: binding
The target of assay [1] is T1, PDZ protein (GST-PDZ fusion) (Homo sapiens, UniProt P57105).
T1 construct: made in house; host or cells: E. coli (DH5alpha, BL21 or JM109)
T1 sequence (P57105 1-145): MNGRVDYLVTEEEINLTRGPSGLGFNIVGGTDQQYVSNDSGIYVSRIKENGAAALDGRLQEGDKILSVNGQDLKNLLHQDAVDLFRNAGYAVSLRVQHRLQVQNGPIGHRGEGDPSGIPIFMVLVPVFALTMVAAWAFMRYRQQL
The experiment in a line: G' assay (10 uM PL peptide), results of TABLE 7 and TABLE 12. The conditions noted are these: PDZ Outer Membrane, PDZ Domain 1. In a few lines: (§1)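 Same steps as the G-zero format, apart from a peptide concentration of 10 uM in place of 20 uM in step 2. Amino-terminally biotinylated PL peptides bind GST-PDZ fusions, and retained peptide is quantified by 450 nm absorbance.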

The target in assay [2] is T2, PDZ protein (GST-PDZ fusion) (Homo sapiens, UniProt Q86UL8).
T2 construct: made in house; host or cells: E. coli (DH5alpha, BL21 or JM109)
The assay is described as above. The gist of the method:
as §1

Assay [3] deals with T3, PDZ protein (GST-PDZ fusion) (Homo sapiens, UniProt Q9NZN5).
T3 construct: made in house; host or cells: E. coli (DH5alpha, BL21 or JM109)
Described as above. Conditions: PDZ KIAA0382, PDZ Domain 1. In a few lines:
as §1

Assay [4] deals with T4, KIAA0807(S) (PDZ Domain 1) (Homo sapiens, UniProt Q6P0Q8).
T4 construct: made in house; host or cells: E. coli (DH5alpha, BL21 or JM109)
T4 sequence (Q6P0Q8 with tags, fused parts or gaps): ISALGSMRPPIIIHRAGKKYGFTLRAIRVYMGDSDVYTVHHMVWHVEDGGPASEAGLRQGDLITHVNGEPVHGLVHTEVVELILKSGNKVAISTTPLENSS
The experiment in a line: G' assay and Kd titration, TABLE 12. The conditions noted are these: for Classification: A450 nm class of biotinylated PL peptide bound, 0 in conc columns = peptide 10 uM, protein 5 ug/ml.

The target of assay [5] is T5, PDZ protein (GST-PDZ fusion) (Homo sapiens, UniProt Q12959).
T5 construct: made in house; host or cells: E. coli (DH5alpha, BL21 or JM109)
The experiment in a line: G' assay (10 uM PL peptide), results of TABLE 7 and TABLE 12. In a few lines: as §1

Assay [6] deals with T6, PDZ protein (GST-PDZ fusion) (Homo sapiens, UniProt Q8NI35).
T6 construct: made in house; host or cells: E. coli (DH5alpha, BL21 or JM109)
Described as above. The conditions noted are these: PDZ INADL, PDZ Domain 3. In a few lines:
as §1

Setting [7] is: PDZ Atrophin-1 Inter. Prot., PDZ Domain 5.

Ends that are not written are not given here. Peptide text beside a SMILES is read from it. * marks the point of attachment. Biotin = O=C1N[C@H]2[C@H](CS[C@H]2CCCCC(=O)*)N1

T3 sequence (Q9NZN5 whole entry, the tested form may be a part): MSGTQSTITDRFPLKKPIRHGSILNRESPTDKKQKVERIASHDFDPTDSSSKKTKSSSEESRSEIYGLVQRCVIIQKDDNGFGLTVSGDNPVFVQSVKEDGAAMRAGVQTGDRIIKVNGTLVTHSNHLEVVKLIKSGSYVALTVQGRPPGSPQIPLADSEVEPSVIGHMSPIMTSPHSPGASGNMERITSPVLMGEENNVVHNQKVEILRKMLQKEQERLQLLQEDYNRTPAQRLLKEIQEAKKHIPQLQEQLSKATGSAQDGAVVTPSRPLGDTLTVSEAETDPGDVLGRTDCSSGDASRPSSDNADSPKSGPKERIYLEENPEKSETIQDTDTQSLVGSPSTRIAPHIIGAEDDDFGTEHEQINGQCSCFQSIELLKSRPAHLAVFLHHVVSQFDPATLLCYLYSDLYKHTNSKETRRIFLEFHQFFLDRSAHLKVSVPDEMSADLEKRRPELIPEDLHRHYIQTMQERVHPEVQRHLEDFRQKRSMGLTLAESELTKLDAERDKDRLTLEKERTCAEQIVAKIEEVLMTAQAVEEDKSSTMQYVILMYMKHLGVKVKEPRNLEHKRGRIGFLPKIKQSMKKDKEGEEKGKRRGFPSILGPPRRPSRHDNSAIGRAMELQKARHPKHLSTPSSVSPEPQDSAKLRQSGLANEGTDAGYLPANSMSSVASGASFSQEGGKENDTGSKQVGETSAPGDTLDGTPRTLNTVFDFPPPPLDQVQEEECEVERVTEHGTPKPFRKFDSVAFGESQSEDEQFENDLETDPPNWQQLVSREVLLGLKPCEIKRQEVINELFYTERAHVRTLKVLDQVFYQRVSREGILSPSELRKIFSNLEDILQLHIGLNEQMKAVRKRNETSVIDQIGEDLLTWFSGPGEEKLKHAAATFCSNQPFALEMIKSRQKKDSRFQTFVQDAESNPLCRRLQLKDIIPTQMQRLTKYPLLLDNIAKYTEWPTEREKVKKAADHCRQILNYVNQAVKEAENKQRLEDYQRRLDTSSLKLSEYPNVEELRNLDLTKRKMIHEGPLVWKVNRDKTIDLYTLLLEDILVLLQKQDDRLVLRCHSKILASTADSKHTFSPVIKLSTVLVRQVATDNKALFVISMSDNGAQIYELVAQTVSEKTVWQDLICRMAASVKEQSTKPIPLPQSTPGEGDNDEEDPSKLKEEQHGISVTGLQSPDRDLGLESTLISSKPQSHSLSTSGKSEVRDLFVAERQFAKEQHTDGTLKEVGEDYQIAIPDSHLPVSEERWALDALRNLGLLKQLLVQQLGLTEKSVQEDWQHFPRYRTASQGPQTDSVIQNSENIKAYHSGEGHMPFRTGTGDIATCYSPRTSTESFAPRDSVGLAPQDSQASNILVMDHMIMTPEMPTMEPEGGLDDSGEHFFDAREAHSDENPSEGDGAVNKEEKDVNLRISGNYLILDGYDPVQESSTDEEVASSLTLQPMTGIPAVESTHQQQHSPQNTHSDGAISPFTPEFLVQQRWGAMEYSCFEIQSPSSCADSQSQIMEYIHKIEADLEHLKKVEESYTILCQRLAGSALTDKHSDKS
T2 sequence (Q86UL8 whole entry, the tested form may be a part): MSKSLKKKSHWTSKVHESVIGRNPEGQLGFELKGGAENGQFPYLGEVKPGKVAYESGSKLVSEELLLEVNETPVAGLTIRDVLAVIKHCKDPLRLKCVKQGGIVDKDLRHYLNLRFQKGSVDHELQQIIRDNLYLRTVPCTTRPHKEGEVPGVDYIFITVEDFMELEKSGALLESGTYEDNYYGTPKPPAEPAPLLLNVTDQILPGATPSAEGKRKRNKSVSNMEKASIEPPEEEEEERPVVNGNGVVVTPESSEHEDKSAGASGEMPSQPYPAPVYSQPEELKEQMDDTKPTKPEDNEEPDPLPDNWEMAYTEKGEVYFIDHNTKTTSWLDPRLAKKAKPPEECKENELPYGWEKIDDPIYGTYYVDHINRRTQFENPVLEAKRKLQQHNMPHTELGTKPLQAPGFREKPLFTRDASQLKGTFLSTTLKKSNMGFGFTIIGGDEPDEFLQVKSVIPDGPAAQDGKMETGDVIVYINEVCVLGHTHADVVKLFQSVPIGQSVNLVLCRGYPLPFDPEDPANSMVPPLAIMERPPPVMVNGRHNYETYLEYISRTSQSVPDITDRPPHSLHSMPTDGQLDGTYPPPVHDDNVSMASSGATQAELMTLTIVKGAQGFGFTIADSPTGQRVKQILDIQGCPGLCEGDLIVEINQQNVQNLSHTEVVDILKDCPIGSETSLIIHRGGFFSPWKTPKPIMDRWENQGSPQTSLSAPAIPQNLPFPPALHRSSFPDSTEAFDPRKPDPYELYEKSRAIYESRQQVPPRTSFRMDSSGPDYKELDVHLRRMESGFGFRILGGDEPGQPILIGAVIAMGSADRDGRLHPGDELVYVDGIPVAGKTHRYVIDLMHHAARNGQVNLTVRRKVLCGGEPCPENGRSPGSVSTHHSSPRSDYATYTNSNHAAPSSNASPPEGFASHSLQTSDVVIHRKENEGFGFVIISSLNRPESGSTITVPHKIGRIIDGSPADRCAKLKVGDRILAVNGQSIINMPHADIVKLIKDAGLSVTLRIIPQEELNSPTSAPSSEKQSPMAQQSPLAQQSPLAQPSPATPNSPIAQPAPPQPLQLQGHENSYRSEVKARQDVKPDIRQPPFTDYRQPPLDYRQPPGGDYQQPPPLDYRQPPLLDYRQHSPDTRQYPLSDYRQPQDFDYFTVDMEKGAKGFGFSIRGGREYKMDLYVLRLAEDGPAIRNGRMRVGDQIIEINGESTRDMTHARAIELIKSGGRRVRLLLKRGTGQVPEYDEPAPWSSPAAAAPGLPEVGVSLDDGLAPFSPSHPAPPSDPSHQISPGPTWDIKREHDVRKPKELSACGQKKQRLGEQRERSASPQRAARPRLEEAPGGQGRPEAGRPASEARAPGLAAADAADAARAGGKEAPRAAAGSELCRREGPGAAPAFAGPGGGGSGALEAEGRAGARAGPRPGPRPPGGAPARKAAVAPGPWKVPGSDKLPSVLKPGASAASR
T6 sequence (Q8NI35 whole entry, the tested form may be a part): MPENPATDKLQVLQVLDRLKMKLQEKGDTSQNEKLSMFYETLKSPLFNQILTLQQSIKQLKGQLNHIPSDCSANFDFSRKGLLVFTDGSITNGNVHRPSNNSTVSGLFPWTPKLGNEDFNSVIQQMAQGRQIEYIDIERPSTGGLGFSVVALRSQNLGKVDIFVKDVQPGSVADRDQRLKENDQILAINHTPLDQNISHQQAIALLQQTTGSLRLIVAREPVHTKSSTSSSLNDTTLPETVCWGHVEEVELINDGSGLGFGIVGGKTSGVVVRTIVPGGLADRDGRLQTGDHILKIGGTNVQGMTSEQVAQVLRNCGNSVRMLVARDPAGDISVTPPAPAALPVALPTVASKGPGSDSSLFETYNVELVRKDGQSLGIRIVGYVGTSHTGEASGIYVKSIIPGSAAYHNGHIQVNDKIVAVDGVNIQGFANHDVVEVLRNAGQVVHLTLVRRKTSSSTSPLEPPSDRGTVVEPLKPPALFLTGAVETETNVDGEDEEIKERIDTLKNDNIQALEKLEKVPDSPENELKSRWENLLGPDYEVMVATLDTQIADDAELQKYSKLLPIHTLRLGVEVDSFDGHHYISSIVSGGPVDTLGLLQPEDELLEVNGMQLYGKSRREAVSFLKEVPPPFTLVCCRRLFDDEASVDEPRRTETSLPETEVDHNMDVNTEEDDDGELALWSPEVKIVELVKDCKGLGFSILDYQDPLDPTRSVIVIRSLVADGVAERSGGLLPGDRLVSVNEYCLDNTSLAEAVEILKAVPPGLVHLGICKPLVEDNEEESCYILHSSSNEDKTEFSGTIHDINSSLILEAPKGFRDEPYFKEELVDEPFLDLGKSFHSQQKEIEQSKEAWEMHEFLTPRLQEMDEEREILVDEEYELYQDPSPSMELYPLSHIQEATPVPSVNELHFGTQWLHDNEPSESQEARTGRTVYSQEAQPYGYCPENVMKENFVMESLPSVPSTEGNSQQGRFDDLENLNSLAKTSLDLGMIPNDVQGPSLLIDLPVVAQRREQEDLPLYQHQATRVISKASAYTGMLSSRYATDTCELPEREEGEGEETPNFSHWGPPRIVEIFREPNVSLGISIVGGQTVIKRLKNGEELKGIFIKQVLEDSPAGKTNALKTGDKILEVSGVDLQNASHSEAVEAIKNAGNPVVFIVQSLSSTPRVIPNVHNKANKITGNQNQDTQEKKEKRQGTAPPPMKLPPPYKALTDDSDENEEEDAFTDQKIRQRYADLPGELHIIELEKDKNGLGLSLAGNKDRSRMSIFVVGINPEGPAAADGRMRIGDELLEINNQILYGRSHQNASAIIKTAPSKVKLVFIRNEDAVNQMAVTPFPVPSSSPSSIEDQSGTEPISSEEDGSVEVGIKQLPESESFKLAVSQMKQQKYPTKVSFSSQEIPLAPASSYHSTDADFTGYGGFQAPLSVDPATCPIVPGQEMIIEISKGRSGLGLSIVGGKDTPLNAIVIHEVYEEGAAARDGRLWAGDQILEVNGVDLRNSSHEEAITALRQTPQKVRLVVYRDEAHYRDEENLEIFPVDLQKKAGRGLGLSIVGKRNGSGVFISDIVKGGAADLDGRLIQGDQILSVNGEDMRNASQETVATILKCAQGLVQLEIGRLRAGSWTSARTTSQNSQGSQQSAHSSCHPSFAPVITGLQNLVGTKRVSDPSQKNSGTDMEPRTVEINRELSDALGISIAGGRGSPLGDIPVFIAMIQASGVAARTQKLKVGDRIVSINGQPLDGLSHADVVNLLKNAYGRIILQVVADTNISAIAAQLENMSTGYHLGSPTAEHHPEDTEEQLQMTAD

With `CC[C@H](C)[C@H](NC(=O)[C@H](CO)NC(=O)[C@H](CCC(=O)O)NC(=O)[C@H](Cc1ccc(O)cc1)NC(=O)[C@H](CC(=O)O)NC(=O)[C@H](CC(N)=O)NC(=O)[C@H](CCC(=O)O)NC(=O)[C@H](CCCCN)NC(=O)CCCC[C@@H]1SC[C@@H]2NC(=O)N[C@@H]21)C(=O)N[C@@H](CO)C(=O)N[C@@H](CC(=O)O)C(=O)N[C@@H](CC(C)C)C(=O)N[C@@H](CCC(N)=O)C(=O)N[C@@H](CCC(N)=O)C(=O)NCC(=O)N[C@@H](CCCNC(=N)N)C(=O)N[C@@H](CC(=O)O)C(=O)N[C@H](C(=O)N[C@H](C(=O)N[C@@H](CCCNC(=N)N)C(=O)N[C@@H](CC(C)C)C(=O)O)[C@@H](C)O)[C@@H](C)CC` [PAG] (Biotin-KENDYESISDLQQGRDITRL-OH; C-terminus assumed), the Classification in assay [1] is reported as 2 (A450 nm 1-2); in assay [2] (setting [7]) it was 1 (A450 nm 0-1); in assay [3], 1 (A450 nm 0-1); in assay [4] it was 5 (A450 nm of 4 more than 2× repeated). The Kd in assay [4] (titration of PL peptide, KIAA0807(S) protein 0.5 ug/ml, read-out: Peptide Optimal Conc (Kd)) was determined as 0.35 µM.

With `CC[C@H](C)[C@H](NC(=O)[C@H](CCC(N)=O)NC(=O)CCCC[C@@H]1SC[C@@H]2NC(=O)N[C@@H]21)C(=O)N[C@@H](CO)C(=O)N1CCC[C@H]1C(=O)NCC(=O)NCC(=O)N[C@@H](CC(C)C)C(=O)N[C@@H](CCC(=O)O)C(=O)N1CCC[C@H]1C(=O)N1CCC[C@H]1C(=O)N[C@@H](CO)C(=O)N[C@@H](CCC(=O)O)C(=O)N[C@@H](CCCCN)C(=O)N[C@@H](Cc1c[nH]cn1)C(=O)N[C@@H](Cc1ccccc1)C(=O)N[C@@H](CCCNC(=N)N)C(=O)N[C@@H](CCC(=O)O)C(=O)N[C@H](C(=O)N[C@@H](CCC(=O)O)C(=O)N[C@H](C(=O)O)C(C)C)[C@@H](C)O` [Tax], the Classification in assay [1] is 5 (A450 nm of 4 more than 2× repeated); in assay [5] (PDZ DLG1, PDZ Domain 1), 5 (A450 nm of 4 more than 2× repeated); in assay [5] (PDZ DLG1, PDZ Domain 2), 5 (A450 nm of 4 more than 2× repeated); in assay [2] (setting [7]) it was 3 (A450 nm 2-3); in assay [2] (PDZ atrophin-1 interacting Protein (Atrophin-1 Inter. Prot.), PDZ Domain 1), 5 (A450 nm of 4 more than 2× repeated); in assay [2] (PDZ atrophin-1 interacting Protein, PDZ Domain 2) it was 1 (A450 nm 0-1). Also, the Classification in assay [2] (PDZ atrophin-1 interacting Protein, PDZ Domain 3) was 1 (A450 nm 0-1); in assay [6], 1 (A450 nm 0-1); in assay [4] it was 5 (A450 nm of 4 more than 2× repeated).

As to `CC(C)C[C@H](NC(=O)[C@H](C)NC(=O)[C@@H](NC(=O)[C@@H](NC(=O)[C@H](Cc1c[nH]cn1)NC(=O)[C@H](CC(C)C)NC(=O)CNC(=O)[C@H](CCC(N)=O)NC(=O)CNC(=O)CNC(=O)[C@H](C)NC(=O)[C@H](C)NC(=O)[C@H](CCCNC(=N)N)NC(=O)[C@H](C)NC(=O)[C@H](CO)NC(=O)[C@H](CC(=O)O)NC(=O)[C@H](CC(=O)O)NC(=O)[C@H](Cc1c[nH]c2ccccc12)NC(=O)[C@H](C)NC(=O)CCCC[C@@H]1SC[C@@H]2NC(=O)N[C@@H]21)C(C)C)[C@@H](C)O)C(=O)O` [LPAP] (Biotin-AWDDSARAAGGQGLHVTAL-OH; C-terminus assumed), the values for the Classification in assay [2] (setting [7]), in assay [3] and in assay [4] were 2 (A450 nm 1-2), 5 (A450 nm of 4 more than 2× repeated) and 5 (A450 nm of 4 more than 2× repeated), respectively.

Take “LASKSAEEGKQIPDSLSTDL (Biotin-LASKSAEEGKQIPDSLSTDL) [Dock2]”: the Classification in assay [2] (setting [7]) is listed as 1 (A450 nm 0-1); in assay [6], 1 (A450 nm 0-1); in assay [3] it was 1 (A450 nm 0-1); in assay [4], 4 (A450 nm 3-4).

For the compound “QATSRNGHSARQHVVADTEL (Biotin-QATSRNGHSARQHVVADTEL) [CD34]”, the results for the Classification in assay [2] (setting [7]), in assay [3] and in assay [4] were 1 (A450 nm 0-1), 1 (A450 nm 0-1) and 3 (A450 nm 2-3), respectively.

For the origin of these results see patent US20050282743A1, “Molecular interactions in cells” (Arbor Vita Corporation, priority 2001, published 2005).
